Source: patent US20230174484A1, “ANTAGONISTS OF GPR39 PROTEIN” (Oregon Health & Science University, priority 2020, published 2023)
Counter-ions that a name gives are not always drawn.

target: T1, human GPR39 receptor (Homo sapiens, UniProt O43194); test: Measurement of intracellular calcium response in PC3 cells (FLIPR), antagonism of the C3 agonist response; type: cell-based; conditions: PC-3, hGPR39 receptor agonist, calcium response, read-out: EC90 (concentration producing 90% of the maximal response)
T1 construct: PC3 Cells, Expressing the Endogenous Human GPR39 Receptor; endogenous in cells; host or cells: PC3 (human prostate adenocarcinoma) cells
T1 sequence (O43194 1-453): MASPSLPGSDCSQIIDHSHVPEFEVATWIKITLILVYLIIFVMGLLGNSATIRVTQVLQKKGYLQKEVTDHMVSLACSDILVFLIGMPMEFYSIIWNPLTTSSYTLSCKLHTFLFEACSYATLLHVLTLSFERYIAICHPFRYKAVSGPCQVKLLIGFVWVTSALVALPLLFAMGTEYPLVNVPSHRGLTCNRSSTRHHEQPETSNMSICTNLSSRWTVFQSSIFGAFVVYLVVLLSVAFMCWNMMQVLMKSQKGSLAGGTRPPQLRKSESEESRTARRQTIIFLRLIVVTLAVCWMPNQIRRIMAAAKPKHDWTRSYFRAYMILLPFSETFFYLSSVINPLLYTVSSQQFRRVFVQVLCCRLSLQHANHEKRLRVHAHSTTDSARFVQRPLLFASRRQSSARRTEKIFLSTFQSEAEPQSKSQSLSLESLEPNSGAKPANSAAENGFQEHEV
Method in brief: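 Potency was reported as fpKi, converted by modified Cheng-Prusoff from four-parameter IC50 fits against an EC90 C3 agonist challenge. Calcium-6 FLIPR readings used PC3 cells naturally expressing human GPR39, in pH 7.4 HEPES buffer containing 30 μM final ZnCl2. Score bands: +/± <5.2, + 5.2–5.9, ++ 6.0–6.5, +++ 6.6–7.2, ++++ ≥7.3.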

| Compound | EC90 [nM] |
| --- | --- |
| CNc1nc(NCc2ccc(NS(C)(=O)=O)cc2Cl)cc(-c2ccccn2)n1 [Example C3, reference compound] | 1500 |

same assay, conditions: functional pKi (modified Cheng-Prusoff), inhibition of the C3 (TC-G 1008) response at EC90, 30 μM ZnCl2

| Compound | fpKi activity |
| --- | --- |
| (2R or 2S) N-[6-(3,3-difluoropyrrolidin-1-yl)-5-(4-methyl-2-phenylpiperazine-1-carbonyl)pyridin-2-yl]cyclopropanecarboxamide [Example 148b] | + (An fpKi ranging from 5.2 to 5.9 is reported as “+”) |

same assay, conditions: functional pKi (modified Cheng-Prusoff), inhibition of the C3 (TC-G 1008) response at EC90, 30 μM ZnCl2, read-out: fpKi activity

| Compound | Ki [nM] |
| --- | --- |
| Cc1nnc(-c2ccc(C(=O)N3CCN(C)CC3c3ccccc3)c(N3CCC(C(F)(F)F)C3)c2)[nH]1 (single isomer, unassigned) [Example 177a, (2S, 3R) or (2R, 3S) or (2R, 3R) or (2S, 3S) (4-methyl-2-phenylpiperazin-1-yl)-[4-(5-methyl-4H-1,2,4-triazol-3-yl)-2-[3-(trifluoromethyl)pyrrolidin-1-yl]phenyl]methanone] | 63.1 to 251 |
| Cc1nnc(-c2ccc(NC(=O)C3CC3)cc2N2CCCCCC2)n1C [Example 113, N-[3-(azepan-1-yl)-4-(4,5-dimethyl-1,2,4-triazol-3-yl)phenyl]cyclopropanecarboxamide] | 1260 to 6310 |
| O=C(Nc1ccc(C(=O)N2CCN(c3cccnc3)CC2)c(N2CCCCCC2)c1)C1CC1 [Example 51, N-(3-(azepan-1-yl)-4-(4-(pyridin-3-yl)piperazine-1-carbonyl)phenyl) Cyclopropanecarboxamide] | 63.1 to 251 |
| O=C(Nc1ccc(C(=O)N2CCN3CCCC3C2)c(N2CCCCCC2)c1)C1CC1 (stereo not shown) [Example 40, N-[3-(azepan-1-yl)-4-{octahydropyrrolo[1,2-a]pyrazine-2-carbonyl}phenyl] Cyclopropanecarboxamide] | 316 to 1000 |
| CN1CCN(C(=O)c2ccc(NC(=O)C3CC3)cc2N2CCCC2)C(c2ccccc2F)C1 (single isomer, unassigned) [Example 84b, N-[4-[2-(2-fluorophenyl)-4-methylpiperazine-1-carbonyl]-3-pyrrolidin-1-ylphenyl]cyclopropanecarboxamide] | 1260 to 6310 |
| C[C@@H]1C[C@H](C)CN(c2cc(NC(=O)C3CC3)ccc2-c2nnc(Sc3ccccc3)n2C)C1 [Example 114b, N-[3-(3,5-dimethylpiperidin-1-yl)-4-(4-methyl-5-phenylsulfanyl-1,2,4-triazol-3-yl)phenyl]cyclopropanecarboxamide] | 63.1 to 251 |
| CN1CCN(C(=O)c2ccc(NC(=O)C3CC3)cc2N2CCC3(COC3)C2)C(c2ccccc2)C1 (stereo not shown) [Example 203, N-[4-(4-methyl-2-phenylpiperazine-1-carbonyl)-3-(2-oxa-7-azaspiro[3.4]octan-7-yl)phenyl]cyclopropanecarboxamide] | 316 to 1000 |
| CCCN1CCN(C(=O)c2ccc(NC(=O)C3CC3)cc2N2CCCC3(COC3)C2)CC1 [Example 6, N-(4-(4-propylpiperazine-1-carbonyl)-3-(2-oxa-6-azaspiro[3.5]nonan-6-yl)phenyl)cyclopropane carboxamide] | 1260 to 6310 |
| O=C(Nc1ccc(C(=O)N2CCS(=O)(=O)CC2)c(N2CC3CCC2C3)c1)C1CC1 (stereo not shown) [Example 187, N-[3-(3-azabicyclo[2.2.1]heptan-3-yl)-4-(1,1-dioxo-1,4-thiazinane-4-carbonyl)phenyl]cycloprooanecarboxamide] | 316 to 1000 |
| CN1CCN(C(=O)c2ccc(NC(=O)C3CC3)cc2N2CCCC2)C(c2ccccc2)C1 (racemic) [Example 62c, N-[4-(4-methyl-2-phenylpiperazine-1-carbonyl)-3-pyrrolidin-1-ylphenyl]Cyclopropanecarboxamide] | 63.1 to 251 |
| CN1CCN(C(=O)c2ccc(NC(=O)C3CC3)cc2N2CCCCCC2)C(c2cccs2)C1 (racemic) [Example 69c, N-(3-(azepan-1-yl)-4-(4-methyl-2-(thiophen-2-yl)piperazine-1-carbonyl)phenyl) cyclopropane carboxamide] | ≤ 50.1 |
| O=C(Nc1ccc(C(=O)N2CCC3(CC2)COC3)c(N2CCC(C(F)(F)F)C2)c1)C1CC1 (single isomer, unassigned) [Example 213b] | 63.1 to 251 |
| O=C(Nc1ccc(C(=O)N2CCS(=O)(=O)CC2)c(-n2ccc(C(F)(F)F)n2)c1)C1CC1 [Example 181, N-[4-(1,1-dioxo-1,4-thiazinane-4-carbonyl)-3-[3-(trifluoromethyl)pyrazol-1-yl]phenyl]cyclopropanecarboxamide] | ≤ 50.1 |
| CC1CC(C)CN(c2cc(NC(=O)C3CC3)ccc2-c2nnc(Sc3ccccc3)n2C)C1 (stereo not shown) [Example 114c, N-[3-(3,5-dimethylpiperidin-1-yl)-4-(4-methyl-5-phenylsulfanyl-1,2,4-triazol-3-yl)phenyl]cyclopropanecarboxamide] | 63.1 to 251 |
| O=C(Nc1ccc(C(=O)N2CCN(c3ccccn3)CC2)c(N2CCCCCC2)c1)C1CC1 [Example 46, N-(3-(azepan-1-yl)-4-(4-(pyridin-2-yl)piperazine-1-carbonyl)phenyl) Cyclopropanecarboxamide] | 316 to 1000 |
| CCCN1CCN(C(=O)c2ccc(NC(=O)C3CC3)cc2-c2ccccn2)CC1 [Example 11, N-(4-(4-propylpiperazine-1-carbonyl)-3-(pyridin-2-yl)phenyl)cyclopropanecarboxamide] | 316 to 1000 |
| CN1CCN(C(=O)c2ccc(NC(=O)C3CC3)cc2N2CCC3(CCC3)C2)C(c2ccccc2)C1 (single isomer, unassigned) [Example 66a, N-[3-(6-azaspiro[3.4]octan-6-yl)-4-(4-methyl-2-phenylpiperazine-1-carbonyl)phenyl]cyclopropanecarboxamide] | ≤ 50.1 |
| CN1CCN(C(=O)c2ccc(NC(=O)C3CC3)nc2N2CCCC(F)(F)C2)C(c2ccccc2)C1 (racemic) [Example 144, N-[6-(3,3-difluoropiperidin-1-yl)-5-(4-methyl-2-phenylpiperazine-1-carbonyl)pyridin-2-yl]cyclopropanecarboxamide] | 63.1 to 251 |
| O=C(Nc1ccc(C(=O)N2CCS(=O)(=O)CC2)c(N2CC3CC(C3)C2)c1)C1CC1 [Example 195, N-[3-(3-azabicyclo[3.1.1]heptan-3-yl)-4-(1,1-dioxo-1,4-thiazinane-4-carbonyl)phenyl]cyclopropanecarboxamide] | 63.1 to 251 |
| Cc1nnc(-c2ccc(C(=O)N3CCC(F)(F)CC3)c(-n3ccc(C(C)C)n3)c2)[nH]1 [Example 210, (4,4-difluoropiperidin-1-yl)-[4-(5-methyl-4H-1,2,4-triazol-3-yl)-2-(3-propan-2-ylpyrazol-1-yl)phenyl]methanone] | ≤ 50.1 |
| CN1CCN(C(=O)c2ccc(-c3nnc(C4CC4)[nH]3)cc2N2CCCC2)C(c2ccccc2)C1 (single isomer, unassigned) [Example 151b, (2R or 2S) [4-(5-cyclopropyl-4H-1,2,4-triazol-3-yl)-2-pyrrolidin-1-ylphenyl]-(4-methyl-2-phenylpiperazin-1-yl)methanone] | 1260 to 6310 |
| CN1CCN(C(=O)c2ccc(NC(=O)C3CC3)cc2N2CCCC2)C(c2cncnc2)C1 (racemic) [Example 175, N-[4-(4-methyl-2-pyrimidin-5-ylpiperazine-1-carbonyl)-3-pyrrolidinylphenyl]cyclopropanecarboxamide] | 316 to 1000 |
| CC(C)c1ccn(-c2cc(NC(=O)C3CC3)ccc2C(=O)N2CCS(=O)(=O)CC2)n1 [Example 179, N-[4-(1,1-dioxo-1,4-thiazinane-4-carbonyl)-3-(3-propan-2-ylpyrazol-1-yl)phenyl]cyclopropanecarboxamide] | ≤ 50.1 |
| CCCC1CCN(C(=O)c2ccc(NC(=O)C3CC3)cc2N2CCCCCC2)CC1 [Example 47, N-(3-(azepan-1-yl)-4-(4-propylpiperidine-1-carbonyl)phenyl)cyclopropanecarboxamide] | 63.1 to 251 |
| O=C(Nc1ccc(C(=O)N2CCSCC2c2ccccc2)c(N2CCCC2)c1)C1CC1 (stereo not shown) [Example 58, N-[4-(3-phenylthiomorpholine-4-carbonyl)-3-pyrrolidin-1-ylphenyl]cyclopropanecarboxamide] | 63.1 to 251 |
| CCCN1CCN(C(=O)c2ccc(NC(C)=O)cc2N2CCCCCC2)CC1 [Example 95, N-(3-(azepan-1-yl)-4-(4-propylpiperazine-1-carbonyl)phenyl)acetamide] | 1260 to 6310 |
| CN1CCN(C(=O)c2ccc(NC(=O)C3CC3)cc2N2CCC(C(F)(F)F)C2)C(c2ccccc2)C1 (single isomer, unassigned) [Example 199c, (2S, 3R) or (2R, 3S) or (2R, 3R) or (2S, 3S) N-[4-(4-methyl-2-phenylpiperazine-1-carbonyl)-3-[3-(trifluoromethyl)pyrrolidin-1-yl]phenyl]cyclopropanecarboxamide] | 63.1 to 251 |
| CC1CC(C)CN(c2cc(NC(=O)C3CC3)ccc2C(=O)N2CCN(C)CC2c2ccccc2)C1 (single isomer, unassigned) [Example 68f, Syn 2R or 2S N-[3-[3,5-dimethylpiperidin-1-yl]-4-(4-methyl-2-phenylpiperazine-1-carbonyl)phenyl]cyclopropanecarboxamide hydrochloride] | ≤ 50.1 |
| CCCN1CCN(C(=O)c2ccc(NC(=O)C3CC3)cc2N2CCCC2)CC1 [Example 16, N-[4-(4-propylpiperazine-1-carbonyl)-3-(pyrrolidin-1-yl)phenyl] Cyclopropanecarboxamide] | 63.1 to 251 |
